The values that follow come from patent US6784137B2, “6-aryl-4-aminopicolinates and their use as herbicides” (Dow AgroSciences LLC, priority 2001, dated 2004).

Data set [1] has as its system Barnyardgrass (Echinochloa crus-galli). Kind of data set: Postemergence herbicidal activity, greenhouse spray. Format: in vivo. Conditions: Echinochloa crus-galli, post-emergence, 336 h, Table 1, visual score after 2 weeks, read-out: Post-emergent % control ECHCG; for pest or weed control at 500 ppm: rate 500 ppm. In outline:
(§1)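 Test compounds, dissolved in 97:3 acetone/DMSO and serially diluted in an aqueous surfactant and crop oil mixture, were applied postemergence to young plants at the one- to two-true-leaf stage, with carrier-only sprays as controls.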

Data set [2] has as its system Cocklebur (Xanthium strumarium). Described as above. Format: in vivo. To be noted: Xanthium strumarium, post-emergence, 336 h, Table 1, visual score after 2 weeks, read-out: Post-emergent % control XANST; for pest or weed control at 500 ppm: rate 500 ppm, 0 no injury, 100 complete kill. An outline of the steps:
as §1

The subject of data set [3] is Lambsquarter (Chenopodium album). The description is as above. To be noted: Chenopodium album, post-emergence, 336 h, Table 1, visual score after 2 weeks, read-out: Post-emergent % control CHEAL; for pest or weed control at 500 ppm: rate 500 ppm. Type of data set: in vivo. In outline: as §1
The test system of data set [4] is Yellow nutsedge (Cyperus esculentus). The description is as above. Format: in vivo. Conditions: Cyperus, post-emergence, 336 h, Table 1, visual score after 2 weeks, read-out: Post-emergent % control CYPES; for pest or weed control at 500 ppm: rate 500 ppm. In outline:
as §1

For data set [5], the system named is Crabgrass(large) (Digitaria sanguinalis). Kind of data set: Preemergence herbicidal activity, soil spray. To be noted: Digitaria sanguinalis, pre-emergence, 504 h, Table 5, visual score after 3 weeks, read-out: Pre-emergent % control DIGSA; for pest or weed control at 560 ppm: rate 560 ppm. Format: in vivo. The source says: (§2) Seeds of the desired test plant species were planted in a soil matrix prepared by mixing a loam soil (43 percent silt, 19 percent clay, and 38 percent sand, with a pH of about 8.1 and an organic matter content of about 1.5 percent) and sand in a 70 to 30 ratio. The soil matrix was contained in plastic pots with a surface area of 113 square centimeters. When required to ensure good germination and healthy plants, a fungicide treatment and/or other chemical or physical treatment was applied. A weighed amount, determined by the highest rate to be tested, of each test compound was placed in a 20 mL glass vial and was dissolved in 4 mL of a 97:3 v/v (volume/volume) mixture of acetone and dimethyl sulfoxide to obtain concentrated stock solutions. […] The stock solutions obtained were diluted with a 99.9:0.1 mixture of water and Tween® 155 surfactant to obtain application solutions of known concentration. The solutions containing the highest concentration to be tested were prepared by diluting 2 mL aliquots of the stock solution with 15 mL of the mixture and lower concentrations were prepared by serial dilution of the stock solution. A 2.5 mL aliquot of each solution of known concentration was sprayed evenly onto the soil surface (113 sq. cm) of each seeded pot using a Cornwall 5.0 mL glass syringe fitted with a TeeJet TN-3 hollow cone nozzle to obtain thorough coverage of the soil in each pot. Control pots were sprayed in the same manner with the aqueous mixture. The treated pots and control pots were placed in a greenhouse maintained with an approximate 15 hr photoperiod and temperatures of about 23-29° C. during the day and 22-28° C. during the night. Nutrients and water were added on a regular basis and supplemental lighting was provided with overhead metal halide 1000-Watt lamps as necessary. The water was added by top-irrigation.

Data set [6] has as its system Giant Foxtail (Setaria faberi). Kind of data set: Preemergence herbicidal activity, soil spray. Format: in vivo. Conditions: Setaria faberi, pre-emergence, 504 h, Table 5, visual score after 3 weeks, read-out: Pre-emergent % control SETFA; for pest or weed control at 560 ppm: rate 560 ppm.
Text: as §2

Data set [7] has as its system Lambsquarter (Chenopodium album). Kind of data set: Preemergence herbicidal activity, soil spray. Format: in vivo. Conditions: Chenopodium album, pre-emergence, 504 h, Table 5, visual score after 3 weeks, read-out: Pre-emergent % control CHEAL; for pest or weed control at 560 ppm: rate 560 ppm, 100 complete kill or no germination.
Text: as §2

In data set [8] the test system is Pigweed (redroot) (Amaranthus retroflexus). Kind of data set: Preemergence herbicidal activity, soil spray. Type of data set: in vivo. Conditions: Amaranthus retroflexus, pre-emergence, 504 h, Table 5, visual score after 3 weeks, read-out: Pre-emergent % control AMARE; for pest or weed control at 560 ppm: rate 560 ppm.
Text: as §2

As to `Nc1cc(-c2cccc(Cl)c2)nc(C(=O)O)c1Cl` [Compound 143, 4-Amino-3-chloro-6-(3-chlorophenyl)pyridine-2-carboxylic acid], the melting point was determined as 171 °C. In addition, the pest or weed control at 500 ppm in data set [1] came to 70%. In [2], the pest or weed control at 500 ppm was 100%. The pest or weed control at 500 ppm in [3] was found to be 100%. For the same compound, the pest or weed control at 500 ppm in [4] amounted to 40%. For the same compound, in [5], the pest or weed control at 560 ppm was 100%. Also, in [6], the pest or weed control at 560 ppm was 100%. Besides, the pest or weed control at 560 ppm in data set [7] amounted to 100%. The pest or weed control at 560 ppm in [8] came out at 100%.
`COC(=O)c1nc(-c2ccc(Cl)cc2)c(F)c(N)c1F` [Compound 90, Methyl 4-amino-3,5-difluoro-6-(4-chlorophenyl)pyridine-2-carboxylate] had a melting point of 165 to 166 °C. Besides, the pest or weed control at 500 ppm in [1] is 98%. The pest or weed control at 500 ppm in [2] stood at 100%. For the same compound, in data set [3], the pest or weed control at 500 ppm came out at 100%. For the same compound, the pest or weed control at 500 ppm in data set [4] came out at 90%. The pest or weed control at 560 ppm in data set [5] was found to be 100%. Moreover, in data set [6], the pest or weed control at 560 ppm was 100%. The pest or weed control at 560 ppm in data set [7] was 100%. For the same compound, in data set [8], the pest or weed control at 560 ppm worked out at 100%.
`COC(=O)c1nc(-c2ccc(C)cc2)c(F)c(N)c1F` [Compound 91, Methyl 4-amino-3,5-difluoro-6-(4-methylphenyl)pyridine-2-carboxylate] yielded a melting point of 145 to 146 °C. Moreover, the pest or weed control at 500 ppm in data set [1] was determined as 90%. The pest or weed control at 500 ppm in data set [2] was found to be 100%. Also, in data set [3], the pest or weed control at 500 ppm turned out to be 100%. Further, the pest or weed control at 500 ppm in data set [4] came out at 80%. Further, the pest or weed control at 560 ppm in [5] came out at 100%. The pest or weed control at 560 ppm in data set [6] came out at 60%. The pest or weed control at 560 ppm in data set [7] worked out at 90%. In data set [8], the pest or weed control at 560 ppm amounted to 100%.
In the case of `COc1ccc(-c2cc(N)c(Cl)c(C(=O)O)n2)cc1` [Compound 141, 4-Amino-3-chloro-6-(4-methoxyphenyl)pyridine-2-carboxylic acid], the melting point was 192 °C. In addition, the pest or weed control at 250 ppm in data set [1] (rate 250 ppm) turned out to be 80%. The pest or weed control at 250 ppm in data set [2] (rate 250 ppm) was found to be 100%. The pest or weed control at 250 ppm in data set [3] (rate 250 ppm) was 100%. In addition, the pest or weed control at 250 ppm in data set [4] (rate 250 ppm) was 10%. Also, in data set [5], the pest or weed control at 560 ppm worked out at 60%. The pest or weed control at 560 ppm in data set [6] was found to be 70%. Besides, the pest or weed control at 560 ppm in [7] is 100%. Moreover, in data set [8], the pest or weed control at 560 ppm came to 98%.
`Nc1cc(-c2ccc(C(F)(F)F)cc2)nc(C(=O)O)c1Cl` [Compound 152, 4-Amino-3-chloro-6-[4-(trifluoromethyl)phenyl]pyridine-2-carboxylic acid]: the melting point lay within 175 to 176 °C. For the same compound, the pest or weed control at 125 ppm in data set [1] (rate 125 ppm) worked out at 90%. Besides, the pest or weed control at 125 ppm in data set [2] (rate 125 ppm) amounted to 100%. In addition, in [3] (rate 125 ppm), the pest or weed control at 125 ppm was 100%. In addition, the pest or weed control at 125 ppm in data set [4] (rate 125 ppm) stood at 95%. Also, the pest or weed control at 140 ppm in data set [5] (rate 140 ppm) was found to be 100%. In [6] (rate 140 ppm), the pest or weed control at 140 ppm came to 100%. The pest or weed control at 140 ppm in data set [7] (rate 140 ppm) was found to be 100%. Also, in [8] (rate 140 ppm), the pest or weed control at 140 ppm worked out at 95%.

As usually defined, the melting point is the temperature of the solid-liquid transition.
